Key:
3T3L1 cells [1] = assay: MTT assay for cytotoxicity testing; type: cell-based; settings: 25 μM; 2, 4 and 6 days
Protocol: 12500 cells/mL were seeded in presence/absence of compound of Formula I in […] plate and at different intervals of time (2 days, 4 days, 6 days), 1/10th volume of 5 mg/ml MTT solution was added to it followed by incubation at 37° C. for 3 hours. The formed crystals were dissolved in DMSO and spectrometric estimation of colour intensity was done at 570 nm.
MTT assay was performed to check for any possible cellular toxicity effect of compound of Formula I, using 25 μM concentration of the compound on 3T3L1 cells upon incubation for varying lengths of time (2, 4 and 6 days). Comparison was done with cells that were left untreated or treated with DMSO as solvent control (FIG. 3).

3T3L1 cells [2] = assay: Adipogenesis of 3T3L1 cell line, Oil Red-O staining; type: cell-based
Protocol: The preadipocyte cell line 3T3L1 was seeded in complete DMEM (supplemented with 10% FBS). Once the cells reached almost full confluent state, they were treated with differentiation media (2 μg/mL Insulin, 0.5 mM IBMX and 1 μM Dexamethasone) for 2 days. After the differentiation induction, the cells were kept in maintenance media (2 μg/mL Insulin) for another 4-6 days with media change given every 2 days. The completion of adipogenesis was confirmed by the observation of lipid droplet accumulation in most of the cells. On the 6th day post induction of differentiation the cells were fixed with 3.7% formaldehyde solution followed by staining with Oil Red-O dye (prepared in 60% isopropanol) for 1 hour at room temperature. The incorporated dye was extracted using isopropanol and absorbance values were determined spectrophotometrically at 510 nm to estimate total amount of lipid accumulation under different experimental conditions.

[3] = Detection of compound in mice liver by Q-TOF LC/MS; type: in vivo; settings: LC-ESI-MS of liver metabolites
Protocol: The liver samples of mice treated with compound I were homogenized in a solution consisting of 50% methanol and 50% water and then snap frozen in liquid nitrogen followed by lyophilization. Profiling of intracellular metabolites was performed on an agilent 1290 Infinity LC system coupled to Agilent 6545 Accurate Mass Quadrupole Time of Flight (QTOF) with Agilent Jet Stream Thermal Gradient Technology. The UPLC system was assembled with a Diode array detector (DAD) and autosampler. The Chromatographic separation was achieved on Agilent ZORBAX SB-C18 column (2.1×100 mm, 1.8 μm) as stationary phase. […]
The ESI spectra of pure solution of compound of Formula I was taken as reference (FIG. 14A). When LC-ESI-MS analysis of metabolites of compound treated mice, liver was performed, the corresponding protonated molecular ion species was detected in the ESI spectra (FIG. 14B).

full length p300 = target: T1, full length p300 (Homo sapiens, UniProt Q09472); assay: In vitro p300 butyrylation assay (immunoblot); type: biochemical; settings: 25 μM
T1 construct: Purified full length p300 protein was used for in vitro acetylation/butyrylation assay
T1 sequence (Q09472 whole entry, species assumed): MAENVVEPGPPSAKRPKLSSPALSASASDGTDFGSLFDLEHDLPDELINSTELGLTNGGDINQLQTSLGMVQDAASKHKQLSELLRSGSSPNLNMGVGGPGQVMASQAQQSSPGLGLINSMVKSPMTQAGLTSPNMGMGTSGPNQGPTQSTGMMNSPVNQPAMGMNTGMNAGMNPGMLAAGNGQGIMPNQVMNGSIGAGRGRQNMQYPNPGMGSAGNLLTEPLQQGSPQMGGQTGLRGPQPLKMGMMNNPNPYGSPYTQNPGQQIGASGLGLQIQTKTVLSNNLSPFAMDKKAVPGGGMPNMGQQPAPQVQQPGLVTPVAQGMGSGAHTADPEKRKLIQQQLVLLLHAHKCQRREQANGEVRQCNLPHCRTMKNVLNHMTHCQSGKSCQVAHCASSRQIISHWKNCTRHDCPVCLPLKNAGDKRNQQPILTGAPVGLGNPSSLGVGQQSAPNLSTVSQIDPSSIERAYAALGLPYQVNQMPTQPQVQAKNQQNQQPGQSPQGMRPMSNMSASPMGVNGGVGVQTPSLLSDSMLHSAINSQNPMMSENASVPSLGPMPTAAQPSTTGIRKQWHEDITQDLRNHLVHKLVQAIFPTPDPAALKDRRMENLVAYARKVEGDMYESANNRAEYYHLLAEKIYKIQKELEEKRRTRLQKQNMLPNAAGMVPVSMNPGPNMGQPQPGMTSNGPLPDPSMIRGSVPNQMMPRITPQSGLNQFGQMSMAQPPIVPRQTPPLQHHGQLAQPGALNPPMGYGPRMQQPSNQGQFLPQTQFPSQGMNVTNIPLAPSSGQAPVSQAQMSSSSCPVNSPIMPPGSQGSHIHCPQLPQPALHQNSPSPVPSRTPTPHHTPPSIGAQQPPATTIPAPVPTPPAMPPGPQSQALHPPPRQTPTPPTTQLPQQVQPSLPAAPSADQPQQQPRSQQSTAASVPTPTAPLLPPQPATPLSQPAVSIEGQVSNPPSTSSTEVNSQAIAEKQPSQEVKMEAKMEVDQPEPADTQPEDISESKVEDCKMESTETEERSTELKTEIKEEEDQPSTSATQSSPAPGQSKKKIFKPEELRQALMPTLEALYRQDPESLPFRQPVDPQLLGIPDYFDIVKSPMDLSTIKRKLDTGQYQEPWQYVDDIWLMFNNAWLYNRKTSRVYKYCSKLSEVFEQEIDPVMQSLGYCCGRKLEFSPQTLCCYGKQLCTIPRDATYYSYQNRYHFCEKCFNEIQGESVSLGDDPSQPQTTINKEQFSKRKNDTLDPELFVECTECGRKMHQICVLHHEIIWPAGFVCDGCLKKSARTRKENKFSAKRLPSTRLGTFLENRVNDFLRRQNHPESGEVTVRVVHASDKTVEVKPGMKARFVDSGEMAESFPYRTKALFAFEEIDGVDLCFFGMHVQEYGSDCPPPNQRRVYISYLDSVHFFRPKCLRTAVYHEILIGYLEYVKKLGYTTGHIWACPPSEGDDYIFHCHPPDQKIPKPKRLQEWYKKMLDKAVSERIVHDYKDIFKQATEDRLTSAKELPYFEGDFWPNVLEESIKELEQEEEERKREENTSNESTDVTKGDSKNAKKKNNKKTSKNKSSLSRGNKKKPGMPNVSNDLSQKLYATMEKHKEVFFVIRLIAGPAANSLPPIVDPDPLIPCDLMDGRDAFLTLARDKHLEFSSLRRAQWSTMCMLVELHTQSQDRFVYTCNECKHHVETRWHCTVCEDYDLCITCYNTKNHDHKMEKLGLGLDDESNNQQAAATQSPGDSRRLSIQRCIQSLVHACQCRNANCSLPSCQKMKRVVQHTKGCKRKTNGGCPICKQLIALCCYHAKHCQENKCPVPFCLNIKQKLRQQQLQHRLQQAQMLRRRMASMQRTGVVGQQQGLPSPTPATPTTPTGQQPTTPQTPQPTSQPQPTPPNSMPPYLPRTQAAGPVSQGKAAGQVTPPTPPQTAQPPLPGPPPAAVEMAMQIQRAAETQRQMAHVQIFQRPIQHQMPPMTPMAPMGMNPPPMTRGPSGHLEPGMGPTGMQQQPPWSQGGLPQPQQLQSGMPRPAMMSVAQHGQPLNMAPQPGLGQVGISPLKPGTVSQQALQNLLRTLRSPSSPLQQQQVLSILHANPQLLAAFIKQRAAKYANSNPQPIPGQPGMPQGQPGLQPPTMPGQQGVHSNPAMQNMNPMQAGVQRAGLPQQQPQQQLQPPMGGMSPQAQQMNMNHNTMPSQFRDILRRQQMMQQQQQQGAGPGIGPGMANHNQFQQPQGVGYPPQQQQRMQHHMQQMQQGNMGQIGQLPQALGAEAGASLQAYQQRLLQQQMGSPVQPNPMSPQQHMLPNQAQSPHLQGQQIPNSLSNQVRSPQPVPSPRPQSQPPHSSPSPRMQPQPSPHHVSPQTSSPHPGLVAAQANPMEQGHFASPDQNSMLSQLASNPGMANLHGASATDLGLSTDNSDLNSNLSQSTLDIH
Protocol: Purified full length p300 protein was used for in vitro acetylation/butyrylation assay in presence/absence of different compounds. Acylation reactions were performed in reaction buffer (25 mM Tris-HCl PH 7.5, 100 mM NaCl, 0.1 mM EDTA, 1 mM DTT, 10% Glycerol, 1×PIC) with 100 ng/ml TSA, and 50 μM Butyryl-CoA/Acetyl COA. Xenopus histone H3 (500 ng) was used as the substrate and p300 (10,000 cpm activity) was used as the enzyme. Reactions were incubated in presence or absence of small molecule modulators (including compound of Formula I) for 10 minutes at 30° C., followed by initiation of the acetylation/butyrylation reaction by the addition of acetyl/butyryl CoA. After a further 10 minutes, reactions were stopped by addition of Laemmli buffer and samples were used for immunoblotting.
Immunoblotting with antibodies against acetylated H3K18, acetylated H3K9 and pan-butyryl lysine was performed to check for the relative inhibition of acetyl transferase and butyryl transferase activities of full length p300 by garcinol, isogarcinol and its different derivatives including compound of Formula I at different concentrations. FIG. 2i depicts the effect of garcinol, isogarcinol and two of its derivatives LTK-13 and LTK-14 on p300 catalysed acetyltransferase activity. […] FIG. 2ii depicts the effect of LTK-14 on acetylation and butyrylation catalysed by p300. Lane 1, enzyme alone; Lane 2-4, enzyme+LTK-14 at concentrations 500 nM, 2 μM and 10 μM, respectively. LTK-14 could inhibit acetylation at 10 μM concentration while butyrylation was inhibited at 2 μM concentration. FIG. 2iii depicts the effect of compound x on acetylation and butyrylation catalysed by p300. Lane 1, enzyme alone; Lane 2, enzyme+DMSO; Lane 3-6, enzyme+compound x at concentrations 10, 15, 20 and 25 μM, respectively.

For COc1ccc(C(=O)C2=C3OC(C)(C)[C@@H](CC=C(C)C)C[C@@]34C[C@@H](CC=C(C)C)C(C)(C)[C@@](CC=C(C)C)(C2=O)C4=O)cc1OC [Compound X], the “toxic effect (MTT)” value (3T3L1 cells [1]) was “No toxic effect”, the “adipogenesis, Oil-Red O staining” value (3T3L1 cells [2]) was “inhibition of adipogenesis” and the “detection in mice liver (bioavailability)” value [3] was “detected in its intact form”. For the same compound, the “effect on butyrylation catalysed by p300” value (full length p300) was “significant inhibitory effect”.

From patent publication US20240269106A1, “SMALL MOLECULE MODULATOR TARGETING A RARE HISTONE MODIFICATION REGULATING ADIPOGENESIS AND PHARMACEUTICAL FORMULATION THEREOF” (COUNCIL OF SCIENTIFIC AND INDUSTRIAL RESEARCH AN INDIAN …, priority 2021, published 2024)
